Test results published in US10897891B2, “Compositions and methods for prolonged cell storage” (Board of Regents, The University of Texas System, priority 2015, dated 2021).

Test system: platelets
Assay: Microscopic platelet degranulation at 5° C. with cryoprotective agents
Type: cell-based, human
Set-up: key to effect on microscopic degranulation, 0.75% / effect on microscopic degranulation, 0.38% / effect on microscopic degranulation, 3% / effect on microscopic degranulation, 1.5% / effect of cryoprotective on platelet degranulation, 3% / effect of cryoprotective on platelet degranulation, 1.5% / effect of cryoprotective on platelet degranulation, 0.75% / effect of cryoprotective on platelet degranulation, 0.38%: none: None = no effect detected ~90% complete degranulation; fair: Fair = 25 to 50% of platelets are non-degranulated; good: Good = >80 are non-degranulated
Conditions: for effect of cryoprotective on platelet degranulation, 3% / effect on microscopic degranulation, 3%: 3% final in ACD-Platelet mixture; for platelet colour / granule preservation: 5° C.; for effect of cryoprotective on platelet degranulation, 0.38% / effect on microscopic degranulation, 0.38%: 0.38% final in ACD-Platelet mixture; for effect of cryoprotective on platelet degranulation, 0.75% / effect on microscopic degranulation, 0.75%: 0.75% final in ACD-Platelet mixture; for effect of cryoprotective on platelet degranulation, 1.5% / effect on microscopic degranulation, 1.5%: 1.5% final in ACD-Platelet mixture
Description: Platelet aggregation using epinephrine. Ten ml of 24 hr old platelet residual was derived from one platelet unit and split into two 5 ml aliquots in 50 ml tubes. One sample received 10% phosphate buffered saline (PBS) and one 10% PBS containing PEG400 such that the final PEG concentration was 2%. These samples were placed on a flat-bed rotator with a 1 inch stroke, at 70 cycles per min, at 5° C. for 7 days. 100 ul of these platelet suspensions were added to wells of a 96 well U bottom plate. Epinephrine 0.1 mg/ml (Pharmaceutical NDC 0409-4921-34-44-048-DK) was diluted with PBS and 100 ul was added to test wells to give a finial concentration of 10 mcg/ml. The plate was rotated overnight to allow aggregation. The extent of aggregation was read using an ELISA plate reader (Molecular Devises, Vmax) at 690 nm wavelength. Platelets, with and without PEG, were also aggregated by the addition of 10% H2O2. Hydrogen peroxide is not an agonist for the platelet receptor; however exposure to hydrogen peroxide mimics the platelet storage lesion though membrane ageing. In this study, the inventors tested 2 day old residual platelets form one donor unit by splitting the material in to a 24 well cluster plate. Control platelets had 10% PBS added and were compared to test compositions with the addition of 10% volume PBS plus 2% PEG-400. 10% v/v (Hydrogen peroxide 3%) was then added to all wells simultaneously using a multichannel pipette. Wells were photographed following 1 hr room temperature incubation (see FIGS. 2A-B and FIG. 3). Table 3 presents additional cryoprotective agents scored for the effect on microscopic degranulation (20× high contrast lighting as above).
The following methods were used: “Fresh” in-date 2 day old blood bank O pos random donor platelets were recovered from segments and held in a 50 cc tub with rotation 22° C., 70 cycles/min 1 inch stroke) for 30 min. Glycerol (Fisher tissue grade product) was obtained from virology diluted to 50% in sterile saline and filter sterilized. 12 g glycerol were added to 12 ml sterile saline (BioMeriux—vitek saline) and mixed. This mixture was filter sterilized using a 0.45 um filter (CELLULOSE ACETATE). Dilutions were made of the above saline to a concentration 50%, 25%, 12%, 6%, […]. 200 ul of platelets were withdrawn slowly (8 sec) and add slowly to 7 sterile 2 ml microcentrifuge tubes. 200 ul of 50%, 25%, 12% 6%, and 3% glycerol/saline and two controls using 200 ul saline, were then added to the platelets with slow mixing. Thus the final glycerol concentrations=25, 12, 6, 3, and 1.5. These aliquots were allowed to rotate at room temp as above for 5 min and then placed on a rotator at 70 cycles/min with a 1 inch stroke at 5° C. (temp previously equilibrated and documented at 5° C.)
At day 3, dark dense platelets were observed, indicating degranulation in the control groups (in both control groups A & B). A variation in platelet size was observed: small and dense indicating degranulation, vs. normal morphology pale plump platelets without the dense small degranulated appearance. Degranulation in response to cold storage is associated with the first step of the platelet activation GP-1 signal resulting in α-granule degranulation and massive extracellular release of vWF. (Suhasini el al., 2010). Table 4 presents a summary of additional cryoprotective agents scored for the effect on microscopic degranulation (20× high contrast lighting as above).

[1] = 6% final in ACD-Platelet mixture, 10 days at 5° C.

Compound	5° C. induced degranulation (3% and 6% glycerol, at 3, 6, and 10 days)	effect of cryoprotective on platelet degranulation, 3% (10 days at 5° C.)	effect on microscopic degranulation, 3% (10 days at 5° C.)	platelet colour / granule preservation (3% glycerol or 6% glycerol, day 10)	platelet colour / granule preservation (3% glycerol, day 3)	platelet colour / granule preservation (3% glycerol, day 6)	effect of cryoprotective on platelet degranulation, 6% [1]	effect on microscopic degranulation, 6% [1]	effect of cryoprotective on platelet degranulation, 0.38% (6 days at 5° C.)	effect on microscopic degranulation, 0.38% (6 days at 5° C.)	effect of cryoprotective on platelet degranulation, 0.75% (6 days at 5° C.)	effect on microscopic degranulation, 0.75% (6 days at 5° C.)	effect of cryoprotective on platelet degranulation, 1.5% (6 days at 5° C.)	effect on microscopic degranulation, 1.5% (6 days at 5° C.)	effect of cryoprotective on platelet degranulation, 3% (6 days at 5° C.)	effect on microscopic degranulation, 3% (6 days at 5° C.)
OCC(O)CO [Glycerol]	prevented 5 °C induced degranulation	fair (Fair = 25 to 50% of platelets are non-degranulated)	fair (Fair = 25 to 50% of platelets are non-degranulated)	light color of platelets was observed, indicating granule preservation	light color of platelets was observed, indicating granule preservation	light color of platelets was observed, indicating granule preservation	good (Good = >80 are non-degranulated)	good (Good = >80 are non-degranulated)	–	–	–	–	–	–	–	–
Methoxy PEG	–	–	–	–	–	–	–	–	none	none	none	none	good (Good = >80 are non-degranulated)	good (Good = >80 are non-degranulated)	good (Good = >80 are non-degranulated)	good (Good = >80 are non-degranulated)
glycerol propoxylate	–	–	–	–	–	–	–	–	none	none	fair (Fair = 25 to 50% of platelets are non-degranulated)	fair (Fair = 25 to 50% of platelets are non-degranulated)	fair (Fair = 25 to 50% of platelets are non-degranulated)	fair (Fair = 25 to 50% of platelets are non-degranulated)	none	none
pentaerythritol ethoxylate	–	–	–	–	–	–	–	–	none	none	none	none	none	none	none	none
pentaerythritol propoxylate	–	–	–	–	–	–	–	–	fair (Fair = 25 to 50% of platelets are non-degranulated)	fair (Fair = 25 to 50% of platelets are non-degranulated)	none	none	none	none	none	none
trimethylolpropane ethoxylate [Trimethylopropane ethoxylate]	–	–	–	–	–	–	–	–	none	none	none	none	none	none	none	none
